According to US10344049B2, “Substituted steroids for the treatment of cancer” (AQUAVAN TECHNOLOGY CO., LTD., priority 2017, dated 2019):
Like-named read-outs stand apart in the source and are kept apart here.

What was measured:
Type in all cases: cell-based
[1] = tested on: African green monkey kidney cells Vero; test: Cell viability test (Resazurin), Vero cells
Description: (§1) Cell viability was determined with Resazurin (at a final concentration of 25 μg/mL).

[2] = tested on: human breast cancer cells MDA-MB-231; test: Cell viability test (Resazurin), MDA-MB-231 cells; set-up: evaluation of ability to inhibit cell growth activity (IC50): scale not given here
Description: as §1

[3] = tested on: human Glioblastoma cells U87-MG; test: Cell viability test (Resazurin), U87-MG cells; set-up: evaluation of ability to inhibit cell growth activity (IC50): scale not given here; details: for evaluation of ability to inhibit cell growth activity (IC50): grade of the IC50 of Table 2
Description: as §1

[4] = tested on: human breast cancer cells MDA-MB-468; test: Cell viability test (Resazurin), MDA-MB-468 cells
Description: as §1

[5] = tested on: human liver cancer cells Mahlavu; test: Cell viability test (Resazurin), Mahlavu cells; details: for evaluation of ability to inhibit cell growth activity (IC50): grade of the IC50 of Table 2
Description: as §1

[6] = tested on: human lung cancer cells A549; test: Cell viability test (Resazurin), A549 cells; set-up: evaluation of ability to inhibit cell growth activity (IC50): scale not given here
Description: as §1

[7] = tested on: human colorectal cancer cells SW-480; test: Cell viability test (Resazurin), SW480 cells; set-up: evaluation of ability to inhibit cell growth activity (IC50): scale not given here
Description: as §1

[8] = tested on: human leukemia cells U937; test: Cell viability test (Resazurin), U937 cells
Description: as §1

[9] = Chlorocebus sabaeus, Vero, 48 h, 0.1% FCS, Resazurin, read-out: inhibitory concentrations of cell growth activity IC50
[10] = Chlorocebus sabaeus, Vero, grade of the IC50 of Table 2, read-out: evaluation of ability to inhibit cell growth activity (IC50)
[11] = Homo sapiens, MDA-MB-231, 48 h, MDA-MB-231 cells, 48 hours, 0.1% FCS, Resazurin, read-out: inhibitory concentrations of cell growth activity IC50
[12] = Homo sapiens, MDA-MB-231, MDA-MB-231 cells, grade of the IC50 of Table 2, read-out: evaluation of ability to inhibit cell growth activity (IC50)
[13] = MDA-MB-231 cells, grade of the IC50 of Table 2
[14] = Homo sapiens, U-87 MG, 48 h, 0.1% FCS, Resazurin, read-out: inhibitory concentrations of cell growth activity IC50
[15] = Homo sapiens, U-87 MG, grade of the IC50 of Table 2, read-out: evaluation of ability to inhibit cell growth activity (IC50)
[16] = Homo sapiens, MDA-MB-468, 48 h, MDA-MB-468 cells, 48 hours, 0.1% FCS, Resazurin, read-out: inhibitory concentrations of cell growth activity IC50
[17] = Homo sapiens, MDA-MB-468, MDA-MB-468 cells, grade of the IC50 of Table 2, read-out: evaluation of ability to inhibit cell growth activity (IC50)
[18] = Homo sapiens, Mahlavu, 48 h, 0.1% FCS, Resazurin, read-out: inhibitory concentrations of cell growth activity IC50
[19] = Homo sapiens, Mahlavu, grade of the IC50 of Table 2, read-out: evaluation of ability to inhibit cell growth activity (IC50)
[20] = A549 cells, grade of the IC50 of Table 2
[21] = Homo sapiens, A549, 48 h, A549 cells, 48 hours, 0.1% FCS, Resazurin, read-out: inhibitory concentrations of cell growth activity IC50
[22] = Homo sapiens, A549, A549 cells, grade of the IC50 of Table 2, read-out: evaluation of ability to inhibit cell growth activity (IC50)
[23] = Homo sapiens, SW480, 48 h, SW480 cells, 48 hours, 0.1% FCS, Resazurin, read-out: inhibitory concentrations of cell growth activity IC50
[24] = Homo sapiens, SW480, SW480 cells, grade of the IC50 of Table 2, read-out: evaluation of ability to inhibit cell growth activity (IC50)
[25] = Homo sapiens, U-937, 48 h, U937 cells, 48 hours, 0.1% FCS, Resazurin, read-out: inhibitory concentrations of cell growth activity IC50
[26] = Homo sapiens, U-937, U937 cells, grade of the IC50 of Table 2, read-out: evaluation of ability to inhibit cell growth activity (IC50)
[27] = MDA-MB-468 cells, grade of the IC50 of Table 2
[28] = SW480 cells, grade of the IC50 of Table 2
[29] = 48 hours, 0.1% FCS, Resazurin, read-out: inhibitory concentrations of cell growth activity IC50
[30] = grade of the IC50 of Table 2, read-out: evaluation of ability to inhibit cell growth activity (IC50)

SMILES | IC50 [1, 9] [µM] | IC50 [1, 10] [µM] | IC50 [2, 11] [µM] | IC50 [2, 12] [µM] | IC50 [3, 14] [µM] | IC50 [3, 15] [µM] | evaluation of ability to inhibit cell growth activity (IC50) [3] | IC50 [4, 16] [µM] | IC50 [4, 17] [µM] | IC50 [5, 18] [µM] | IC50 [5, 19] [µM] | IC50 [6, 21] [µM] | IC50 [6, 22] [µM] | IC50 [7, 23] [µM] | IC50 [7, 24] [µM] | IC50 [8, 25] [µM] | IC50 [8, 26] [µM] | evaluation of ability to inhibit cell growth activity (IC50) [4, 27] | evaluation of ability to inhibit cell growth activity (IC50) [7, 28] | also measured
CC(=O)O[C@H]1C=C2[C@@H](CC[C@H](OC(C)=O)C2(C)C)[C@]2(C=O)CC[C@]3(C)[C@@H]([C@H](C)C[C@@H](O)C=C(C)C)CC[C@@]3(C)[C@H]12 [Compound 5] | 25.3 | 16 to 64 | 8.07 | 8 to 16 | 8.8 | 8 to 16 | ◯ | 16.8 | 16 to 64 | 18.5 | 16 to 64 | 12 | 8 to 16 | 16.4 | 16 to 64 | 3.67 | < 8 |  |  | evaluation of ability to inhibit cell growth activity (IC50) [2, 13]: ◯; evaluation of ability to inhibit cell growth activity (IC50) [6, 20]: ◯
CC(=O)O[C@H]1CC[C@@H]2C(=C[C@H](O)[C@@H]3[C@@]2(C=O)CC[C@]2(C)[C@@H]([C@H](C)C[C@H](C=C(C)C)OC(C)=O)CC[C@@]32C)C1(C)C [Compound 6] | 23.1 | 16 to 64 | 23.5 | 16 to 64 | 23.4 | 16 to 64 |  | 14 | 8 to 16 | 16.2 | 16 to 64 | 5.43 | < 8 | 14.9 | 8 to 16 | 1.57 | < 8 | ◯ | ◯ | 
CC(=O)O[C@H]1C=C2[C@@H](CC[C@H](O)C2(C)C)[C@]2(C=O)CC[C@]3(C)[C@@H]([C@H](C)C[C@H](C=C(C)C)OC(C)=O)CC[C@@]3(C)[C@H]12 [Compound 7] | 23.2 | 16 to 64 | 6 | < 8 | 8.51 | 8 to 16 | ◯ | 13.9 | 8 to 16 | 11.9 | 8 to 16 | 6.26 | < 8 | 13.5 | 8 to 16 | 5.52 | < 8 | ◯ | ◯ | evaluation of ability to inhibit cell growth activity (IC50) [5]: ◯
CC(=O)O[C@H]1C=C2[C@@H](CC[C@H](O)C2(C)C)[C@]2(C=O)CC[C@]3(C)[C@@H]([C@H](C)C[C@@H](O)C=C(C)C)CC[C@@]3(C)[C@H]12 [Compound 8] |  |  |  |  |  |  |  |  |  |  |  |  |  |  |  |  |  | ◯ | ◯ | IC50 [1, 29]: 24.2 µM; IC50 [1, 30]: 16 to 64 µM; IC50 ([2]; MDA-MB-231 cells, 48 hours, 0.1% FCS, Resazurin, read-out: inhibitory concentrations of cell growth activity IC50): 5.19 µM; IC50 ([2]; MDA-MB-231 cells, grade of the IC50 of Table 2, read-out: evaluation of ability to inhibit cell growth activity (IC50)): < 8 µM; IC50 [3, 29]: 7.54 µM; IC50 [3, 30]: < 8 µM; IC50 ([4]; MDA-MB-468 cells, 48 hours, 0.1% FCS, Resazurin, read-out: inhibitory concentrations of cell growth activity IC50): 9.81 µM; IC50 [5, 29]: 11.5 µM; evaluation of ability to inhibit cell growth activity (IC50) [5]: ◯; IC50 ([6]; A549 cells, 48 hours, 0.1% FCS, Resazurin, read-out: inhibitory concentrations of cell growth activity IC50): 4.86 µM; IC50 ([6]; A549 cells, grade of the IC50 of Table 2, read-out: evaluation of ability to inhibit cell growth activity (IC50)): < 8 µM; IC50 ([7]; SW480 cells, 48 hours, 0.1% FCS, Resazurin, read-out: inhibitory concentrations of cell growth activity IC50): 13.8 µM; IC50 ([8]; U937 cells, 48 hours, 0.1% FCS, Resazurin, read-out: inhibitory concentrations of cell growth activity IC50): 5.39 µM; IC50 ([8]; U937 cells, grade of the IC50 of Table 2, read-out: evaluation of ability to inhibit cell growth activity (IC50)): < 8 µM
CC(=O)O[C@H]1C=C2[C@@H](CC[C@H](O)C2(C)C)[C@]2(C=O)CC[C@]3(C)[C@@H]([C@H](C)C/C=C/C(C)(C)O)CC[C@@]3(C)[C@H]12 [Compound 9] | 25.9 | 16 to 64 | 18.3 | 16 to 64 | 15.6 | 8 to 16 | ◯ | 26.8 | 16 to 64 | 5.07 | < 8 | 24.4 | 16 to 64 | 31.8 | 16 to 64 | 11.2 | 8 to 16 |  |  | evaluation of ability to inhibit cell growth activity (IC50) ([8]; U937 cells, grade of the IC50 of Table 2): ◯
CC(=O)O[C@@H](C=C(C)C)C[C@@H](C)[C@H]1CC[C@@]2(C)[C@@H]3[C@@H](O)C=C4[C@@H](CC[C@H](O)C4(C)C)[C@]3(C=O)CC[C@]12C [Compound 10] | 19.2 | 16 to 64 | 10.7 | 8 to 16 | 10.7 | 8 to 16 | ◯ | 20.3 | 16 to 64 | 19.4 | 16 to 64 | 9.81 | 8 to 16 | 17.9 | 16 to 64 | 5.92 | < 8 |  |  | evaluation of ability to inhibit cell growth activity (IC50) [2, 13]: ◯; evaluation of ability to inhibit cell growth activity (IC50) [6, 20]: ◯
CC(C)=CC(=O)C[C@@H](C)[C@H]1CC[C@@]2(C)[C@@H]3[C@@H](O)C=C4[C@@H](CC[C@H](O)C4(C)C)[C@]3(C=O)CC[C@]12C [Compound 11] | > 256 | > 256 | > 256 | > 256 | > 256 | > 256 |  | > 256 | > 256 | > 256 | > 256 | > 256 | > 256 | > 256 | > 256 | 84.2 | 64 to 256 |  |  | 
